The values that follow come from patent US11273148B2, “Targeted epigenetic therapy for inherited aortic aneurysm condition” (The Johns Hopkins University, priority 2017, dated 2022).

Entries after “also recorded” stand apart in the source; their conditions may differ.

For one assay, the system named is SGS patient fibroblasts. In words: qPCR of TGFβ target genes in TGFβ1-stimulated primary human dermal fibroblasts. The assay is classed as cell-based. As to conditions: for Expression level of COL3A1 and FN1 relative to β-actin / Expression level of SKI and SMAD7 relative to β-actin: control and SGS patient fibroblasts, vs vehicle treated. On the procedure:
Primary human dermal fibroblasts were derived from forearm skin biopsies of two controls and two patients with Shprintzen-Goldberg syndrome from previously described. The fibroblasts were cultured in Dulbecco's modified eagle medium (DMEM) with 10% fetal bovine serum (FBS) in the presence of antibiotics and passaged confluence. According to previously described protocols with slight modifications (2), all cell culture experiments were conducted in serum-starved media for 24 hours prior to drug treatment. Stimulation was performed using 10 ng/ml recombinant human TGFβ1 (R&D system). […] Cells were collected at baseline, 6 hours after TGFβ1 stimulation. RNA was extracted from the cells using Trizol (ThermoFisher) by RNeasy mini kit (QIAGEN), as per the manufacturer's manual.
Total RNA was isolated from mouse aortas or cultured cells by RNeasy mini kit (QIAGEN), as per the manufacturer's manual. Quantitative PCR was performed in triplicate with TaqMan Universal PCR Master Mix using an ABI Prism 7900 HT QPCR machine (all from Applied Biosystems), as per the manufacturer's manual. The following prevalidated TaqMan probes were used to detect specific transcripts: Mm00801666_g1 (Collal), Mm01254476_m1 (Col3A1), Mm01256744_m1 (Fn1), Mm04205640_g1 (Cdkn1a), Mm01192932_g1 (Ctgf), and Mm00435860_m1 (Serpine1), Mm00448744_m1 (Ski), Mm00456917_m1 (Skil), Mm00484742_m1 (Smad7) and Mm00607939_s1 (Actb) (Life Technologies). For human samples, the following probes were used: Hs00943809_m1 (COL3A1), Hs00365052_m1 (FN1), Hs00161707_m1 (SKI), Hs01045418_m1 (SKIL) and Hs01060665_g1 (ACTB). Reactions were run in triplicate, and relative quantification for each transcript was obtained by normalizing against housekeeping control transcript such as β-ACTIN (ACTB) according to the formula 2^−Ct/2^−Ct(ACTB).

The subject of another assay is TGFβ target genes. In words: qPCR of TGFβ target genes in mouse aorta. The assay is classed as in vivo. To be noted: C646 treated vs DMSO treated VSMC/Ski G34D/+ mice. From the text:
For quantitative RT-PCR and chromatin immunoprecipitation, mice aortic root and ascending aorta (above aortic root to the origin of right brachiocephalic trunk) harvested separately, snap-frozen in liquid nitrogen and stored at minus 80 degrees Celsius until processed. For RNA extraction, Aortas were homogenized in Trizol (ThermoFisher) by FastPrep-24 (MP Biomedicals, LLC.), as per the manufacturer's manual. After homogenization, RNA was extracted by RNeasy mini kit (QIAGEN), as per the manufacturer's manual. RNA samples were then stored once more at minus 80 degrees until quantitative RT-PCR experiment was performed.
C646 (Selleckchem, #S7152) was reconstituted in 10% DMSO (Sigma) dissolved in PBS, and administered daily by intraperitoneal (IP) injection at dose of 5 mg/kg/day. Treatment was initiated at 8 weeks of age and continued for 12 weeks. […]
Total RNA was isolated from mouse aortas or cultured cells by RNeasy mini kit (QIAGEN), as per the manufacturer's manual. Quantitative PCR was performed in triplicate with TaqMan Universal PCR Master Mix using an ABI Prism 7900 HT QPCR machine (all from Applied Biosystems), as per the manufacturer's manual. […] Reactions were run in triplicate, and relative quantification for each transcript was obtained by normalizing against housekeeping control transcript such as β-ACTIN (ACTB) according to the formula 2^−Ct/2^−Ct(ACTB).

For assay [1], the system named is VSMC/Ski G34D/+ mice. In words: Aortic root diameter and growth by echocardiography in C646-treated mice. The assay is classed as in vivo, mouse. As to conditions: for Final absolute aortic root diameter: C646 5 mg/kg/day IP from 8 weeks of age; for Final absolute aortic root diameter / Final absolute aortic root growth rate: 12 weeks of treatment, +/−SEM; for Final absolute aortic root growth rate: C646 5 mg/kg/day IP. On the procedure:
(§1) C646 (Selleckchem, #S7152) was reconstituted in 10% DMSO (Sigma) dissolved in PBS, and administered daily by intraperitoneal (IP) injection at dose of 5 mg/kg/day. Treatment was initiated at 8 weeks of age and continued for 12 weeks. 10% DMSO in PBS was administered as a control.
Nair hair removal cream was used to remove fur from the anterior thorax of the mice the day prior to echocardiography. According to previously described with slight modifications (1), all echocardiography were performed on mice that were awake and unsedated with the use of the Vevo 2100 imaging system and 40 MHz transducer (Visualsonics). Mice were imaged at 8 weeks of age as a baseline and every 4 weeks thereafter, until 20 weeks of age. Mice aorta were imaged in the parasternal long-axis view. Three separate measurements of the maximal internal dimension at the sinus of Valsalva during systole were made in separate cardiac cycles and averaged. All imaging and analysis was performed blinded to genotype and treatment arm.

For assay [2], the system named is VSMC/Ski G34D/+ mice. Put plainly: Aortic root histology (VVG and Masson-trichrome staining): wall thickness, elastin fiber disruptions. To be noted: for Final absolute aortic wall thickness / Final number of disruptions in elastin fiber architecture: C646 5 mg/kg/day IP, 12 weeks, aortic root sections, +/−SEM. The assay is classed as in vivo, mouse. The method, then: According to a previously described protocol with slight modification (1), mice that were analyzed for aortic histology had latex infused into the left ventricle through descending abdominal aorta. Mice were then fixed for 24 hours in 10% neutral buffered formalin and then switched into 70% ethanol until histological analysis was performed.
as §1
According to previously described protocols with slight modifications (1), latex-infused heart and aorta were removed from body and transected just below the level of the aortic annulus, and just above aortic root, and 2-3 mm transverse sections were mounted in 4% agar prior to paraffin fixation. Five micron aortic sections underwent Verhoeff-van Giesen (VVG) and Masson's Trichrome staining, and were imaged 40× magnification, using a Nikon Eclipse E400 microscope. Aortic wall thickness was measured of four sites of four representative sections for each mouse and the disruptions of elastin fiber architecture were counted in four sections every 25 micron from aortic annulus. All analyses were performed blinded to genotype and treatment arm and the results were averaged.

Assay [3] deals with histone 3 lysine 27 acetylation (H3K27ac). In words: Immunofluorescent detection of H3K27ac in aortic roots. The assay is classed as in vivo, mouse. As to conditions: VSMC/Ski G34D/+ mice, C646 5mg/kg/day vs DMSO-treated. On the procedure: For aorta frozen section, harvested aorta with heart was fixed in fresh 4% paraformaldehyde in PBS at 4 degree overnight and then placed in cold 30% sucrose in PBS solution and incubated at 4 degree overnight again. Tissue was then embedded in Tissue-Tek O.C.T compound ad snap-frozen in liquid nitrogen and stored at minus 80 degree until processed.
as §1
Immunofluorescence staining was performed as previous described (3). Frozen 10 μm long-axis view sections were obtained with a cryostat and mounted on glass slides. Sections were dried for at room temperature for overnight prior to staining. Sections were permeabilized in staining buffer (PBS containing 0.1% Triton-X 100) for 30 minutes and then incubated with Fc Receptor Block from Innovex for 30 minutes at room temperature, washed briefly in staining buffer, and then incubated again in blocking solution (0.1% Triton-X 100, 1:50 goat serum, 0.3M glycine) for 30 minutes. […]

Where [4] appears, read: SD208 10 μM for 1 hour pre-treated before TGFβ1 stimulation (10 ng/ml for 6 hours).
[5] abbreviates: C646 2004 for 24 hours pre-treated before TGFβ1 stimulation.
Setting [6] is: C646 2004 for 24 hours pre-treated before TGFβ1 stimulation (10 ng/ml for 6 hours).

As to `Fc1ccc(Cl)cc1-c1nc(Nc2ccncc2)c2nccnc2n1` [SD208], in the assay on SGS patient fibroblasts (setting [4]), the “Expression level of COL3A1 and FN1 relative to β-actin” value was “significantly decreased expression level”; the “Expression level of SKI and SMAD7 relative to β-actin” value was “significantly decreased expression level”.

`CC1=NN(c2ccc(C(=O)O)cc2)C(=O)C1=Cc1ccc(-c2cc(C)c(C)cc2[N+](=O)[O-])o1` (stereo in doubt) [C646, 4-[(4Z)-4-[[5-(4,5-dimethyl-2-nitrophenyl)furan-2-yl]methylidene]-3-methyl-5-oxopyrazol-1-yl]benzoic acid]: the “Expression levels of TGFβ target genes relative to β-actin in aorta” value in the assay on TGFβ target genes was “decreased expression levels of TGFβ target genes except COL1A1, SKI and SKIL; also recorded: normalizes gene expression in the aorta; also recorded: normalization of the TSR”. Further, the “Aortic root diameter (in words)” value in the assay on VSMC/Ski G34D/+ mice [1] (C646 treated vs DMSO treated VSMC/Ski G34D/+ mice, echocardiogram) was “normalized aortic root diameter; also recorded: rescued aortic root diameter”. For the same compound, in the assay on VSMC/Ski G34D/+ mice [1] (Control mice, echocardiogram), the “Final absolute aortic root diameter” value is recorded as 1.686+/−0.024 mm. Also, in the assay with VSMC/Ski G34D/+ mice [1] (Control mice), the “Final absolute aortic root growth rate” value was 0.067+/−0.023 mm/12 weeks. For the same compound, the “Final absolute aortic root diameter” value in the assay on VSMC/Ski G34D/+ mice [1] (VSMC/Ski G34D/+ mice, echocardiogram) is given as 1.848+/−0.045 mm. In the assay with VSMC/Ski G34D/+ mice [1] (VSMC/Ski G34D/+ mice), the “Final absolute aortic root growth rate” value was 0.119+/−0.042 mm/12 weeks. In the assay with VSMC/Ski G34D/+ mice [1] (systemically-administered C646 in Ski VSMC:G34D/+ mice), the Aneurysm progression entry is “abrogates aneurysm progression; also recorded: prevented aneurysm progression”. The “Aortic wall architecture: medial thickening, elastic fiber fragmentation, collagen deposition (in words)” value in the assay on VSMC/Ski G34D/+ mice [2] (C646 treated vs DMSO treated VSMC/Ski G34D/+ mice, VVG and Masson-trichrome staining) was “reduced medial thickening and elastic fiber fragmentation and the recovered collagen deposition; also recorded: preserves aortic wall architecture; also recorded: preservation of aortic wall architecture”. In addition, in the assay on VSMC/Ski G34D/+ mice [2] (Control mice), the “Final absolute aortic wall thickness” value is reported as 58.547+/−1.415 μm and the “Final number of disruptions in elastin fiber architecture” value is given as 1+/−0.577. In addition, in the assay with VSMC/Ski G34D/+ mice [2] (VSMC/Ski G34D/+ mice), the “Final absolute aortic wall thickness” value was 63.438+/−1.818 μm and the “Final number of disruptions in elastin fiber architecture” value was 6+/−1.155. In the assay on SGS patient fibroblasts (setting [5]), the “Difference of COL3A1 and FN1 expression level between C646 treated SGS patient fibroblast and vehicle treated control fibroblasts” value was “no significant difference”; the “Difference of SKI expression level between C646 treated SGS patient fibroblast and vehicle treated control fibroblast” value is recorded as “no significant difference”. Further, the “TGFβ target gene expression in SGS patient fibroblasts” value in the assay with SGS patient fibroblasts (comparable efficiency of a TGFβ type I receptor (Alk5) kinase inhibitor) was “normalized TGFβ target gene expression”. In the assay with SGS patient fibroblasts (setting [6]), the “Expression level of COL3A1 and FN1 relative to β-actin” value is “significantly decreased expression level”; the “Expression level of SKI and SMAD7 relative to β-actin” value is listed as “significantly decreased expression level”. Moreover, the “H3K27 acetylation in aortic root” value in assay [3] was “decreased H3K27 acetylation; also recorded: prevention of excessive Histone 3 Lysine 27 (H3K27) acetylation”.
